Results as given in ChEMBL document CHEMBL4387739, “Discovery of antichagasic inhibitors by high-throughput screening with Trypanosoma cruzi glucokinase” (Bioorg Med Chem Lett, 2019).
pEC50, pIC50: −log10 of the molar value.

Assays:
Trypanosoma cruzi [1] = test: Inhibition of Trypanosoma cruzi glucokinase at 20 uM using D-glucose as substrate after 1 hr in presence of ATP and […] by resazurin dye based G6PDH-diaphorase coupled fluorescence assay relative to control
Trypanosoma cruzi [2] = test: Antitrypanosomal activity against Trypanosoma cruzi Tulahuen […] infected in mouse NIH/3T3 cells assessed as parasite viability at 80 uM by beta-galactosidase reporter gene assay relative to control; assay type: functional
[3] = Inhibition of Trypanosoma cruzi glucokinase using D-glucose as substrate in presence of ATP and […] measured for every 30 secs for 10 mins by resazurin dye based G6PDH-diaphorase coupled fluorescence assay relative to control
Homo sapiens = organism: Homo sapiens; test: Inhibition of human glucose-6-phosphate dehydrogenase truncated mutant (29 to 511 residues) at 20 uM in presence of NADP and glucose-6-phosphate by diaphorase/resazurin coupled fluorescence assay relative to control
Trypanosoma cruzi [4] = test: Antitrypanosomal activity against Trypanosoma cruzi Tulahuen […] infected in mouse NIH/3T3 cells assessed as reduction in parasite viability by beta-galactosidase reporter gene assay; assay type: functional, organism-based; settings: NIH3T3
[5] = Cytotoxicity against mouse NIH/3T3 cells after 72 hrs by alamar blue assay; assay type: cell-based, NIH3T3; settings: read-out: TC50

## O=C1NC(=O)C(=Cc2ccc(N3CCOCC3)cc2)C(=O)N1
Trypanosoma cruzi [1]
  inhibition: 49.4%
Trypanosoma cruzi [2]
  Activity: 88%
[3]
  pIC50: 6.05
Homo sapiens
  inhibition: 1.6%

## O=C1NC(=O)C(=Cc2ccc3c(c2)OCO3)C(=O)N1
Trypanosoma cruzi [1]
  inhibition: 67%
Trypanosoma cruzi [2]
  Activity: 81.2%
[3]
  pIC50: 5.06
Homo sapiens
  inhibition: 5.5%

## COc1ccc(Br)cc1C1C(C#N)=C(N)Oc2c1c(C)nn2-c1ccccc1 (stereo not drawn)
Trypanosoma cruzi [1]
  inhibition: 72.9%
Trypanosoma cruzi [2]
  Activity: 0%
Homo sapiens
  inhibition: 14%

## O=C1NC(=O)C(=Cc2ccc(O)c(O)c2)C(=O)N1
Trypanosoma cruzi [1]
  inhibition: 79.4%
Trypanosoma cruzi [2]
  Activity: 62.8%
[3]
  pIC50: 5.51
Homo sapiens
  inhibition: 2%

## Cc1cc2c(c(O)c1-c1c(C)cc3c(c1O)/C(=C/Nc1ccc(S(=O)(=O)NC(=N)N)cc1)C(=O)C(O)=C3C(C)C)/C(=C/Nc1ccc(S(=O)(=O)NC(=N)N)cc1)C(=O)C(O)=C2C(C)C
Trypanosoma cruzi [1]
  inhibition: 69.2%
Trypanosoma cruzi [2]
  Activity: 0%
[3]
  pIC50: 4.84
Trypanosoma cruzi [4]
  pEC50: 4.75
Homo sapiens
  inhibition: 5.8%
[5]
  CC50 at 72 h: 45.7 µM

## Cc1cc2c(c(O)c1-c1c(C)cc3c(c1O)/C(=C/Nc1c(O)cc(S(=O)(=O)O)c4ccccc14)C(=O)C(O)=C3C(C)C)/C(=C/Nc1c(O)cc(S(=O)(=O)O)c3ccccc13)C(=O)C(O)=C2C(C)C
Trypanosoma cruzi [1]
  inhibition: 57.8%
Trypanosoma cruzi [2]
  Activity: 20.4%
[3]
  pIC50: 4.52
Homo sapiens
  inhibition: 9.4%

## Nc1c(C(=O)c2cccc([N+](=O)[O-])c2)sc2nc(-c3cccnc3)ccc12
Trypanosoma cruzi [1]
  inhibition: 41.8%
Trypanosoma cruzi [2]
  Activity: 52.7%
Homo sapiens
  inhibition: 5.1%

## Cc1ccc(-n2nc(C)c3c2OC(N)=C(C#N)C3c2ccoc2)cc1 (stereo not drawn)
Trypanosoma cruzi [1]
  inhibition: 46.3%
Trypanosoma cruzi [2]
  Activity: 80.6%
Homo sapiens
  inhibition: 19.9%

## CCOc1ccc([C@@H]2Oc3ccc(Br)cc3C=C2[N+](=O)[O-])cc1OC
Trypanosoma cruzi [1]
  inhibition: 43.8%
Trypanosoma cruzi [2]
  Activity: 0%
[3]
  pIC50: 5.21
Trypanosoma cruzi [4]
  pEC50: 5.68
Homo sapiens
  inhibition: 8.2%
[5]
  CC50 at 72 h: 80.7 µM

## OC1(C#CCN2CCCC[C@@H]2c2cccnc2)CCCCCC1
Trypanosoma cruzi [1]
  inhibition: 64%
Trypanosoma cruzi [2]
  Activity: 22.6%
Homo sapiens
  inhibition: 7.8%

## O=C1C(=Cc2ccco2)C(=O)N(c2ccccc2)C(=O)N1c1ccccc1
Trypanosoma cruzi [1]
  inhibition: 54.8%
Trypanosoma cruzi [2]
  Activity: 66.5%
[3]
  pIC50: 6.52
Homo sapiens
  inhibition: 6.6%

## COc1ccc(Br)cc1/C=C1\C(=O)NC(=O)N(CCC2=CCCCC2)C1=O
Trypanosoma cruzi [1]
  inhibition: 59.8%
Trypanosoma cruzi [2]
  Activity: 88.7%
[3]
  pIC50: 5.10
Homo sapiens
  inhibition: 16.3%

## CN1C(=O)C(=Cc2ccc(N(C)C)cc2)C(=O)N(C)C1=O
Trypanosoma cruzi [1]
  inhibition: 63.5%
Trypanosoma cruzi [2]
  Activity: 78.9%
[3]
  pIC50: 5.26
Homo sapiens
  inhibition: 10%

## N#CCCOCCC#CCN1CCCC[C@@H]1c1cccnc1
Trypanosoma cruzi [1]
  inhibition: 36.7%
Trypanosoma cruzi [2]
  Activity: 50.5%
Homo sapiens
  inhibition: 9.2%

## O=[N+]([O-])C1=Cc2c(ccc3ccccc23)O[C@H]1c1ccc2c(c1)OCO2
Trypanosoma cruzi [1]
  inhibition: 68.4%
Trypanosoma cruzi [2]
  Activity: 0%
Homo sapiens
  inhibition: 8.2%

## O=C(O)C1Nc2c(I)cccc2C2C=CCC12 (stereo not drawn)
Trypanosoma cruzi [1]
  inhibition: 74.2%
Trypanosoma cruzi [2]
  Activity: 44.3%
Homo sapiens
  inhibition: 19%

## COc1ccc([C@@H]2Oc3ccccc3C=C2[N+](=O)[O-])cc1OC
Trypanosoma cruzi [1]
  inhibition: 41.5%
Trypanosoma cruzi [2]
  Activity: 0%
[3]
  pIC50: 4.27
Homo sapiens
  inhibition: 8.1%

## Cc1cc2c(c(O)c1-c1c(C)cc3c(c1O)/C(=C/Nc1cccc4c(N)cccc14)C(=O)C(O)=C3C(C)C)/C(=C/Nc1cccc3c(N)cccc13)C(=O)C(O)=C2C(C)C
Trypanosoma cruzi [1]
  inhibition: 66.9%
Trypanosoma cruzi [2]
  Activity: 1.7%
[3]
  pIC50: 4.78
Homo sapiens
  inhibition: 9.6%

## COc1ccc(C(=O)Nc2sc3c(c2C(N)=O)CCCCC3)cc1OC
Trypanosoma cruzi [1]
  inhibition: 42.7%
Trypanosoma cruzi [2]
  Activity: 50.5%
Homo sapiens
  inhibition: 12.6%

## Cc1nn(-c2cccc(Cl)c2)c2c1C(c1cc([N+](=O)[O-])ccc1Cl)C(C#N)=C(N)O2 (stereo not drawn)
Trypanosoma cruzi [1]
  inhibition: 36.8%
Trypanosoma cruzi [2]
  Activity: 0%
Homo sapiens
  inhibition: 1.7%

## O=C1NC(=O)C(=Cc2ccc(Br)s2)C(=O)N1
Trypanosoma cruzi [1]
  inhibition: 35.9%
Trypanosoma cruzi [2]
  Activity: 74.2%
[3]
  pIC50: 5.80
Homo sapiens
  inhibition: 14.8%

## CCOc1ccc([C@@H]2Oc3c(Cl)cc(Cl)cc3C=C2[N+](=O)[O-])cc1OCC
Trypanosoma cruzi [1]
  inhibition: 58.7%
Trypanosoma cruzi [2]
  Activity: 0%
[3]
  pIC50: 5.32
Trypanosoma cruzi [4]
  pEC50: 5.54
Homo sapiens
  inhibition: 9.3%
[5]
  CC50 at 72 h: < 100 µM

## CCOc1ccc([C@@H]2Oc3ccccc3C=C2[N+](=O)[O-])cc1OCC
Trypanosoma cruzi [1]
  inhibition: 72.9%
Trypanosoma cruzi [2]
  Activity: 0%
Homo sapiens
  inhibition: 4.3%

## Cc1nn(-c2ccccc2)c2c1C(c1ccc(F)cc1)C(C#N)=C(N)O2 (stereo not drawn)
Trypanosoma cruzi [1]
  inhibition: 55%
Trypanosoma cruzi [2]
  Activity: 87.1%
[3]
  pIC50: 4.77
Homo sapiens
  inhibition: 2.7%

## COc1ccc(S(=O)(=O)Nc2cccc(Br)c2)c(Cl)c1Cl
Trypanosoma cruzi [1]
  inhibition: 42.8%
Trypanosoma cruzi [2]
  Activity: 0%
[3]
  pIC50: 5.28
Trypanosoma cruzi [4]
  pEC50: 4.81
Homo sapiens
  inhibition: 17.5%
[5]
  CC50 at 72 h: 69 µM
